Source: PMC8315922, “In Vitro Identification and In Vivo Confirmation of Inhibitors for Sweet Potato Chlorotic Stunt Virus RNA Silencing Suppressor, a Viral RNase III” (Journal of Virology, 2021)
Where two headings read alike, the source gives them in different places.

Key:
[1] = biological target: T1, CSR3 (RNase III of SPCSV) (Sweet potato chlorotic stunt virus, UniProt Q8JJW8); test: Kinetic-based HTS (FRET, labeled 22-bp siRNA cleavage), one concentration; assay type: biochemical; settings: compound 10 μM, 375 nM siRNA, 37°C
Description: Based on the catalytic activity of CSR3 on 22-bp siRNA, our kinetic-based HTS assay was designed using distance-dependent FRET technology. Specifically, one strand of siRNA, as a substrate, was labeled with a fluorescent dye (6-carboxyfluorescein [FAM]) at the 5′ end and a quencher (black hole quencher 1 [BHQ1]) at the 3′ end. The initial reaction rate of CSR3 was quantified using the slope of raw fluorescence under an excitation/emission spectrum at 485/520 nm (Fig. 3A). […] In this study, a total of 6,622 compounds (including 6,400 selected from Glide docking and 222 empirically selected compounds for preliminary assay setup) were screened using kinetic-based HTS at a final concentration of 10 μM. All 384-well screening plates contained 32 negative (with CSR3 [i.e., the substrate was successfully cleaved]) and 32 positive (without CSR3 [i.e., the substrate remained intact]) control reaction mixtures. To evaluate the quality of the HTS assay, the Z-factor (Z′) parameter was calculated using the reaction rates of the positive and negative controls ([30]). […]
The HTS assay was designed based on FRET using a 22-bp siRNA (forward sequence, […]; reverse sequence, […]) with a 2-nucleotide (nt) 3′ overhang labeled with the fluorescent dye 6-carboxyfluorescein (FAM) and a black hole quencher (BHQ1) on the sense strand (Metabion, Munich, Germany). […] The plates were read with a PHERAstar FS reader (BMG Labtech, Ortenberg, Germany).
(§1) For HTS, the activity of CSR3 was calculated by measuring the change in fluorescence as a function of the reaction time using MARS Data Analysis software (BMG Labtech). To evaluate the CSR3 inhibition efficiency of individual compounds, the PI of each compound was calculated using the slope values for the sample, positive control, and negative control according to the following equation: PI = 100 × [1 − (sample − positive)/(negative − positive)]%. IC50 and DSS values were calculated using concentration-specific PI values according to a previous study ([31]). Relative gene expression was calculated using the classical 2^−ΔΔ^CT method ([63]).

[2] = biological target: T1, CSR3 (RNase III of SPCSV); test: Kinetic-based FRET dose-response assay (IC50, DSS); assay type: biochemical; settings: for IC50: 1.25 nM to 50 μM, unit inferred
Method: A dose-response assay with six concentrations (1.25 nM to 50 μM) was carried out in three independent experiments, which included two tests with the 112 selected FIMM compounds (i.e., compounds prepared by the HTB-FIMM) and one test using the newly ordered commercial compounds (99 of the 112 compounds, i.e., compounds prepared by a second supplier). A dose-response curve was generated for each compound based on PI values as a function of the concentration.
The HTS assay was designed based on FRET using a 22-bp siRNA (forward sequence, […]; reverse sequence, […]) with a 2-nucleotide (nt) 3′ overhang labeled with the fluorescent dye 6-carboxyfluorescein (FAM) and a black hole quencher (BHQ1) on the sense strand (Metabion, Munich, Germany). Screening was initially carried out at one concentration (10 μM) in a 20-μl reaction buffer. […] All reaction mixtures contained 50 nM CSR3 and 375 nM labeled siRNA in 384-well black flat-bottom microplates (Corning, NY, USA) and were prepared using a BioTek MultiFlo FX dispenser with single-channel random access dispenser cassettes (BioTek, Winooski, VT, USA). The plates were read with a PHERAstar FS reader (BMG Labtech, Ortenberg, Germany).
as §1

[3] = biological target: T2, CSR3 (Sweet potato chlorotic stunt virus, UniProt Q8JJW8); test: Binding affinity assay using MST; settings: Table S4
T2 sequence (Q8JJW8 1-228): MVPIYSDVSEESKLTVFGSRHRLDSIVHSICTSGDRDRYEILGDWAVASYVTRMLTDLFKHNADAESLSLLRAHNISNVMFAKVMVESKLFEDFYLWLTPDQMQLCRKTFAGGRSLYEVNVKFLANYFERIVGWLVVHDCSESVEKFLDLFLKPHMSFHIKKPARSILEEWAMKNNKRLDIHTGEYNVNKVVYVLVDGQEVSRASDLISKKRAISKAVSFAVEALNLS
Method: (§2) Binding affinity assays were first carried out with the 99 commercial compounds using the MST method.
The labeled-protein solution containing 500 nM proteins and 40 nM dye was prepared in PBS buffer with 2% dimethyl sulfoxide (DMSO) for the assay. The 12 concentrations for each compound were obtained by 2-fold serial dilutions (0.2 μM to 400 μM). […] Two independent experiments were carried out in premium coated capillaries (NanoTemper, Munich, Germany) using a Monolith NT.Automated instrument (NanoTemper) with the power set at high (80%), the light-emitting diode (LED) power (pico red) set at 5%, and the on-time set at 20 s. The dissociation constant (Kd) was determined using the MO.Affinity Analysis program (NanoTemper).

[4] = biological target: T2, CSR3; test: Binding affinity assay using SPR; settings: SPR dose-response 3 μM to 200 μM, 25°C; unit inferred, numbers match M (cf. Fig 5A); read-out: Steady State Affinity
Method: as §2
CSR3 was purified as described above and stored in PBS buffer. SPR was performed on a BiacoreT100 instrument (GE Healthcare) using a sensor S CM5 chip (GE Healthcare). CSR3 (10 ng/μl) was immobilized using the standard amine-coupling method according to the manufacturer’s instructions with immobilization buffer (10 mM sodium acetate [pH 4]); the final response unit (RU) value was 11,459. Compounds at a single concentration (100 μM) or consisting of 2-fold serial dilutions (3 μM to 200 μM) were flowed over the sensor surface using PBS buffer with 0.01 M HEPES, 0.05% surfactant P20, and 2% DMSO. […] To eliminate bulk interference by DMSO, a solvent correction consisting of DMSO at concentrations ranging from 1.5% to 2.8% was carried out for every 30 samples. Steady-state affinity (KD) values were determined using BiacoreT100 Evaluation software, v.2.04 (GE Healthcare).

[5] = biological target: RNase III of Sweet potato chlorotic stunt virus (CSR3), His-tagged full-length (Sweet potato chlorotic stunt virus (SPCSV)); test: native gel or EMSA; native Western blotting of purified CSR3, detected with rabbit polyclonal antibodies against CSR3; monomer to dimer

## Cc1ccc(C)c(C(=O)CSc2nnc[nH]2)c1 [FIMM027745]
[1]
  PI values (percentage of inhibition): 98.0616%
[2]; drug sensitivity score, repeat Comm 1
  DSS Comm 1: 1.9
[2]; drug sensitivity score, repeat FIMM 1
  DSS FIMM1: 19.2
[2]; drug sensitivity score, repeat FIMM 2
  DSS FIMM 2: 16.7
[2]; repeat Comm 1 (commercial compounds), numbers match nM, read-out: IC50 Comm 1
  IC50: 14900 nM
[2]; repeat FIMM 1 (FIMM library compounds), numbers match nM (cf. Fig 5A), read-out: IC50 FIMM1
  IC50: 647 nM
[2]; repeat FIMM 2 (FIMM library compounds), numbers match nM, read-out: IC50 FIMM 2
  IC50: 1120 nM
[3]; MST binding call
  Binding (Yes/No): No
[3]; MST response amplitude
  Response Amplitude: 0
[4]
  Kd: 13 µM

## RNase III of Sweet potato chlorotic stunt virus (CSR3), His-tagged full-length (enzyme)
[5]
  stoichiometry N: 2
